Patent publication US10064922B2, “Compositions and methods for immune tolerance induction” (The Research Foundation for The State University of New York, priority 2011, dated 2018)

Test system: HA mice
Assay: Antigen specificity: ovalbumin given concomitantly with FVIII or FVIII-PS/PC at a distant site
Assay type: in vivo
Details: ovalbumin concomitantly administered at a distant anatomical site; ±SEM
Excerpt: During the reverse vaccination strategy, it is desirable that the immunization should not interfere with the ability of the immune system to mount immune response against other antigens and pathogens. In order to investigate the antigen specificity and effect of immunization on the systemic immune suppression, another foreign antigen; ovalbumin (Ova) was concomitantly administered with either FVIII or FVIII-PS/PC complexes, but at a distant anatomical site.

With “Ova: ovalbumin, another foreign antigen given concomitantly at a distant anatomical site” the “Anti-FVIII Nab titers” value was “no anti-FVIII Nabs”.
